Data from publication PMC12069643, “Structural insights into the selective recognition of RF-amide peptides by neuropeptide FF receptor 2” (EMBO Reports, 2025).

Columns and labels:
Assay type in all cases: cell-based
[1] = biological target: T1, human NPFFR2 (Homo sapiens, UniProt Q9Y5X5); test: GloSensor forskolin-stimulated cAMP assay, NPFFR2 wild-type; conditions: HEK293T, 0.5 μM forskolin; for Emax: HEK-293T
T1 construct: expressed in transfected cells; host or cells: HEK293T (pcDNA3.1 NPFFR2)
Protocol: Figure 1 Structural analysis and downstream signaling of NPFFR2. (A) The concentration-dependent response of various agonists on NPFFR2 is measured using a forskolin-stimulated cAMP assay. Data points represent mean values from three independent experiments (each with technical triplicate), with error bars indicating SEM (standard error of the mean). Raw data were normalized to the vehicle-treated (0%) and 0.5 μM forskolin-treated (100%) responses. […] (C) The extracellular loop 2 (ECL2, pink) and N-terminus (Nt, blue) of NPFFR2 are depicted using a cartoon model. […] Source data are available online for this figure.
(§1) HEK293T cells were seeded at a density of 6 × 10^5 cells per well in a six-well cell culture plate (SPL) and co-transfected with expression plasmids encoding GloSensor™ and each NPFFR construct, using 1 µg to 4 µg of DNA per well according to the Lipofectamine™ 2000 Transfection Reagent (Invitrogen) protocol. After 48 h of incubation under standard conditions (37 °C, 5% CO2), the cells were detached using Accutase solution (Sigma-Aldrich) and washed with PBS. The cells were then pelleted by centrifugation, resuspended in CO2-independent medium (Gibco) supplemented with Firefly D-Luciferin (0.5 mg/ml, NanoLight), and distributed into a 96-well white plate (SPL). After a 2-hour incubation, serially diluted ligands and 0.5 μM forskolin were added to each well to detect ligand-induced signaling. Luminescence signals were measured using a Mithras LB940 instrument (Berthold) with a measurement time of 1 s per well.
(§2) Data from the GloSensor^TM cAMP signaling assays were analyzed using GraphPad Prism with a three-parameter logistic model to fit concentration-response curves for both wild-type (WT) and mutant receptors. Mutant expression levels and DNA amounts were adjusted to match WT conditions. ΔpEC50 values were calculated by subtracting the log EC50 of the WT receptor from that of each mutant. Results are presented as mean ± SEM from three independent biological replicates, each performed in duplicate or more. Error bars represent the SEM. Statistical significance was assessed using one-way ANOVA, followed by Dunnett’s tests comparisons to the WT receptor. Significance levels were reported as follows: ns (not significant, P > 0.05); *P < 0.05; **P < 0.01; ***P < 0.001.

[2] = biological target: T2, human NPFFR1 (Homo sapiens, UniProt Q9GZQ6); test: GloSensor forskolin-stimulated cAMP assay, NPFFR1 wild-type; conditions: NPFFR1 wild-type, HEK293T, 0.5 μM forskolin, three independent experiments
T2 construct: expressed in transfected cells; host or cells: HEK293T (pcDNA3.1 NPFFR1)
Protocol: Figure 4 RF-amide ligand selectivity of NPFFR2 and NPFFR1. […] Key residues at the fifth and sixth positions from the C-terminus, are highlighted in bold. […] (B) The concentration-dependent response of various agonists on NPFFR1 was measured using a forskolin-stimulated cAMP assay. Data points represent the mean values from three independent experiments (each with technical triplicate), with error bars indicating SEM. Raw data were normalized to the vehicle-treated (0%) and 0.5 μM forskolin-treated (100%) responses. (C) Structural comparison between the binding modes of hNPSF to NPFFR2 and GnIH to NPFFR1. An AlphaFold2 prediction model of the GnIH–NPFFR1 complex was generated using the hNPSF–NPFFR2 complex structure as a template. The hydrophobicity of NPFFRs is shown with surface representation, where purple indicates hydrophilic regions and bronze indicates hydrophobic regions. […] (D) The cAMP response to the ligands hNPSF and GnIH was measured for both wild-type NPFFR1 and a mutant form of NPFFR1 using a forskolin-stimulated cAMP assay. […] Symbols represent mean values from three independent experiments, each conducted in technical triplicates, with error bars indicating SEM. Responses were normalized to vehicle-treated controls (0%) and 0.5 μM forskolin-treated controls (100%). Source data are available online for this figure.
as §1, §2

[3] = biological target: T3, NPFFR2 mutants (Homo sapiens, UniProt Q9Y5X5, V231A); test: GloSensor forskolin-stimulated cAMP assay, NPFFR2 mutants; conditions: NPFFR2 V1293.36A, HEK293T, three independent experiments
T3 construct: expressed in transfected cells; host or cells: HEK293T (pcDNA3.1 NPFFR2 mutants)
Text: (§3) Figure 2 Interaction of hNPSF with NPFFR2. (A) Residues participating in the interactions between hNPSF and NPFFR2 in the transmembrane (TM) binding pocket are shown as sticks. Dashed lines indicate polar interactions and hydrogen bonds between residues. Zoomed-in views highlighting interactions of the C-terminal segment (residues −1 to −4, PQRF), middle segment (residues −5 to −8, FLFQ), and the N-terminal segment (residues −9 to −11, SQA) of hNPSF are enclosed in red, blue, and yellow boxes, respectively. (B) NPFFR2 residues interacting with hNPSF were mutated to alanine, and the impact of each mutation on the EC50 value (ΔpEC50) was investigated using a forskolin-stimulated cAMP assay, after confirming surface expression of each mutant by an ELISA-based surface expression assay (Appendix Fig. S5). Three independent experiments (with technical triplicates) were conducted for each mutant. The bar graphs represent the mean of ΔpEC50 values from each experiment, with error bars indicating SEM. Statistical analyses were performed using ordinary one-way ANOVA followed by Dunnett’s test, comparing to the wild-type response. ns (not significant, P > 0.05); *P < 0.05; **P < 0.01; ***P < 0.001. Source data are available online for this figure.
as §1, §2
(§4) Appendix Figure S5. GloSensorTM cAMP assays of mutants and wild-type NPFFR2.
(§5) The dose-response of cAMP assay data for each mutant (red) presented in Fig. 2B are compared against the wild-type NPFFR2 (blue). Each experiment was conducted after adjusting the mutant's expression level to that of the wild-type NPFFR2 (Appendix Fig. S3), and pcDNA3.1 was used to match the total amount of DNA transfected. Data points represent mean values from three independent experiments (each with technical triplicate), with error bars indicating SEM. Raw data were normalized to the vehicle -treated (0%) and 0.5 μM forskolin-treated (100%) responses.
(§6) (% of forskolin stimulation) […]

[4] = biological target: T4, NPFFR2 mutants (Homo sapiens, UniProt Q9Y5X5, W213A); test: as above; conditions: NPFFR2 W11123.50A, HEK293T, three independent experiments
T4 construct: expressed in transfected cells; host or cells: HEK293T (pcDNA3.1 NPFFR2 mutants)
Text: as §3, §1, §2, §4, §5, §6

[5] = biological target: T5, NPFFR2 mutants (Homo sapiens, UniProt Q9Y5X5, Y417A); test: as above; conditions: NPFFR2 Y3157.35A, HEK293T, three independent experiments
T5 construct: expressed in transfected cells; host or cells: HEK293T (pcDNA3.1 NPFFR2 mutants)
Text: as §3, §1, §2, §4, §5, §6

[6] = NPFFR2 wild type (50% DNA treated), three independent experiments

T1 sequence (Q9Y5X5 103-522): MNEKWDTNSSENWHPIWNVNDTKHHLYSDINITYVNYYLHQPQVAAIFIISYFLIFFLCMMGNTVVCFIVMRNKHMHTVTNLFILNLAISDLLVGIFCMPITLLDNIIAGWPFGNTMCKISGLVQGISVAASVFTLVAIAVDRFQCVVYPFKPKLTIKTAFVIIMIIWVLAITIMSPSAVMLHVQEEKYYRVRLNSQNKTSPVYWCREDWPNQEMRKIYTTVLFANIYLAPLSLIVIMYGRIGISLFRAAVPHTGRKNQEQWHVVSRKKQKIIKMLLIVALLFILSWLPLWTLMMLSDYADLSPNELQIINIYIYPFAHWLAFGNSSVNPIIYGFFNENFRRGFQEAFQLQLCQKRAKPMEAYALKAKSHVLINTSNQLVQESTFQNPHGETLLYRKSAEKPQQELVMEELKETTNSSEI
T3 sequence (Q9Y5X5 103-522 V231A): as the sequence (Q9Y5X5 103-522) above, with V129A counted along it
T2 sequence (Q9GZQ6 whole entry): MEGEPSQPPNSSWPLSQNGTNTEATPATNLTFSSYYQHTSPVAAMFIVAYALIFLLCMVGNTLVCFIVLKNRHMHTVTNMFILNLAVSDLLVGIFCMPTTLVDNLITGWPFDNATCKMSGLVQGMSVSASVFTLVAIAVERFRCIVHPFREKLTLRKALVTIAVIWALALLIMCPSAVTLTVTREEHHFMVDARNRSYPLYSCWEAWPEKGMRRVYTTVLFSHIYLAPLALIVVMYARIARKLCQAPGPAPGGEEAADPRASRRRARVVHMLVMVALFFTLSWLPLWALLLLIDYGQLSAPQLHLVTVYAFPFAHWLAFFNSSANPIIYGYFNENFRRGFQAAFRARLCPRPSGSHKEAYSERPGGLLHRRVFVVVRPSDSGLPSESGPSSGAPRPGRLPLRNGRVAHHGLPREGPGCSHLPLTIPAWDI
T4 sequence (Q9Y5X5 103-522 W213A): as the sequence (Q9Y5X5 103-522) above, with W111A counted along it
T5 sequence (Q9Y5X5 103-522 Y417A): as the sequence (Q9Y5X5 103-522) above, with Y315A counted along it

- Emax [1, 6]: 56 ± 2%
- Emax ([1]; NPFFR2 wild-type (100% DNA treated for hNPSF), mean of three independent experiments ± SEM): 77 ± 3%
- EC50 [1, 6]: 6.31 nM
- EC50 ([1]; NPFFR2 wild-type (100% DNA treated for hNPSF), three independent experiments): 3.16 nM
- Emax ([2]; HEK-293T, read-out: Emax ± SEM): 83 ± 1%
- EC50 ([2]; read-out: pEC50 ± SEM (converted)): 79.4 nM
- Emax ([3]; HEK-293T): 79 ± 3%
- EC50 [3]: 126 nM
- Emax ([4]; HEK-293T): 78 ± 5%
- EC50 [4]: 1260 nM
- Emax ([5]; HEK-293T): 77 ± 2%
- EC50 [5]: 126 nM
SMILES: CC(C)C[C@H](NC(=O)[C@H](Cc1ccccc1)NC(=O)[C@H](C)NC(=O)[C@H](CCC(N)=O)NC(=O)[C@@H](N)CO)C(=O)N[C@@H](Cc1ccccc1)C(=O)N[C@@H](CCC(N)=O)C(=O)N1CCC[C@H]1C(=O)N[C@@H](CCC(N)=O)C(=O)N[C@@H](CCCNC(=N)N)C(=O)N[C@@H](Cc1ccccc1)C(N)=O [hNPSF]
